In patent publication US20100098640A1, “Multidentate Pyrone-Derived Chelators for Medicinal Imaging and Chelation” (priority 2005, published 2010):

What was measured:
Assay type in all cases: physicochemical
[1] = Aqueous solubility
[2] = Protonation constants of free ligands by potentiometric titration; conditions: 1.0 M aqueous NaCl, ligand ~0.5 mM
Experimental: Thermodynamic evaluation of the new ligands can include potentiometric determination of the ligand protonation constants and spectrophotometric evaluation of the Gd^3+, Ca^2+, and Zn^2+ stability constants. In order to determine the stability of these ligands with Gd^3+, first the protonation constants for each ligand is determined. The protonation constants can be measured by potentiometric titration and the assignment of these protonations can be made using ^1H NMR titrations. ^1H NMR titration experiments use changes in the chemical shift of the non-exchangeable protons on the ligand to assign the sites of protonation; data is plotted as chemical shift vs. pD.
The experimental protocols and equipment used have been previously described (Johnson, A. R., et al. Inorg. Chem. 2000, 39, 2652). To determine the protonation constants of the free ligands, approximately 15 mg of ligand was dissolved in 50 mL of a 1.0 M aqueous solution of NaCl in a titration vessel (ligand concentration ˜0.5 mM). Protonation constants of TRENMAM and TREN-Me-MAM were examined by potentiometric (pH vs total proton concentration) titrations by using Hyperquad (Gans, P. et al. Talanta 1996, 43, 1739) for data analysis. Each protonation constant determination is the result from at least three experiments (where each experiment consists of two titrations, the first one titrated with acid, followed by a reverse titration with base). The equilibration time between additions of titrant was 90 seconds.

[3] = Competition batch titration with DTPA (pGd); conditions: pH 7.4, 24 h equilibration, three titrations
From the text: The affinity of these ligands for protons and metal ions in solution is described in terms of formation constants. The protonation of a metal complex can be subsequently calculated from the appropriate cumulative constants. The stability of metal complexes can be discussed in terms of the pM value (in this case pGd) which is expressed as
Although a pM value can be calculated under various conditions (e.g. different pH's or relative concentrations), in the context of a biological scenario the following parameters are commonly used for comparison: [M]=1 μM, [L]=10 μM, and pH=7.4.
The stability of the heteropodate ligands with Gd^3+, Ca^2+, and Zn^2+ can be measured by spectrophotometric titration. The strong UV absorptions (π→π*) of the pyrone rings of the ligands can be monitored in order to follow the complexation reaction (FIG. 2). The titration can be performed in a batch mode, collecting between 20-40 spectra, monitored between 200-500 nm for each titration of a ligand in the presence of an equal molar amount of Gd^3+, Ca^2+ or Zn^2+. […]

| Compound | water solubility compared to the TREN-Me-MAM ligand [1] | log K1 (protonation constant) [2] | log K2 (protonation constant) [2] | log K3 (protonation constant) [2] | log K4 (protonation constant) [2] | pGd [3] |
| --- | --- | --- | --- | --- | --- | --- |
| O=C(NCCN(CCNC(=O)c1occc(=O)c1O)CCNC(=O)c1occc(=O)c1O)c1occc(=O)c1O [TRENMAM] | improved water solubility | 7.33(1) | 5.76(1) | 4.97(2) | 3.84(2) | 19.27±0.08 |
| tris(aminoethyl)amine)methylmaltolamide [TREN-Me-MAM] |  | 7.91(1) | 6.30(2) | 5.48(2) | 4.46(2) | 19.03±0.04 |
